Measured values taken from the supplement of paper PMC10307832.

compound: CN1CCC(CC1)OC2=CC(=C(C=C2)NC3=NC=C4C(=N3)N(C(=O)N4C)C5CCCC5)OC [AZ3146] + Cc1nc(NC(=O)N2CCC[C@H]2C(N)=O)sc1-c1ccnc(C(C)(C)C(F)(F)F)c1 [Alpelisib] (partner 2 µM); experiment: relative viability (nuclei count vs DMSO), 5 days (fraction); higher = more cells survive; settings: first compound 0.08 µM
In short: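 Cells from lung cancer lines were seeded into 1536-well plates and, one day later, dosed by pin tool. Treatments were either a single drug or a fixed dose of an anchor drug with five library-drug doses (not always all listed) in √10 steps. After 5 days, nuclei were stained in a one-step fixation (final 0.05% Triton X-100, 1% formaldehyde, 1 ug/ml Hoechst) and counted on 4× images, and relative viability is the treated-to-vehicle nuclei ratio, as the median of duplicate plates.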

Compared with NCI-H650, LK-2 is higher in relative viability: 0.813 for the first, 0.907 for the second.

Going from NCI-H2228 to HARA, the relative viability falls from 0.694 to 0.629.

First: Calu-6
Second: COR-L23
The relative viability of the first is higher: 1.01 for the first, 0.705 for the second.

Compared with EBC-1, A549 is lower in relative viability: 0.927 for the first, 0.716 for the second.

Going from NCI-H1299 to NCI-H520, the relative viability falls from 1 to 0.689.

Going from NCI-H1792 to IA-LM, the relative viability rises from 0.577 to 0.638.

Going from NCI-H661 to COR-L 105, the relative viability rises from 0.729 to 1.01.

Going from NCI-H1703 to NCI-H1563, the relative viability rises from 0.374 to 0.924.

First: NCI-H2009
Second: SK-MES-1
The relative viability of the first is higher: 1.1 for the first, 0.785 for the second.

In the case of SW 1573, the relative viability is reported as 0.843.

same assay, conditions: first compound 0.253 µM

Compared with PC-14, NCI-H1666 is lower in relative viability: 0.976 for the first, 0.848 for the second.

Going from EKVX to NCI-H1755, the relative viability rises from 0.802 to 0.989.

Going from NCI-H2023 to HCC-78, the relative viability falls from 0.499 to 0.268.

First: SK-LU-1
Second: PC-3 [JPC-3]
The relative viability of the first is higher: 1.05 for the first, 1.01 for the second.

Going from LOU-NH91 to NCI-H647, the relative viability rises from 0.663 to 1.21.

First: NCI-H23
Second: EPLC-272H
The relative viability of the first is lower: 0.668 for the first, 0.925 for the second.

First: NCI-H2126
Second: HCC-44
The relative viability of the first is lower: 0.705 for the first, 0.805 for the second.

First: NCI-H1734
Second: NCI-H650
The relative viability of the first is lower: 0.62 for the first, 1.08 for the second.

Going from NCI-H2228 to NCI-H1944, the relative viability rises from 0.812 to 0.845.

First: HARA
Second: Calu-6
The relative viability of the first is lower: 0.785 for the first, 1.01 for the second.

First: COR-L23
Second: EBC-1
The relative viability of the first is lower: 0.74 for the first, 0.828 for the second.

Going from A549 to NCI-H1299, the relative viability rises from 0.794 to 1.01.

Going from NCI-H520 to NCI-H1792, the relative viability falls from 0.943 to 0.75.

First: IA-LM
Second: NCI-H661
The relative viability of the first is higher: 0.627 for the first, 0.549 for the second.

Going from COR-L 105 to NCI-H1703, the relative viability falls from 1.15 to 0.34.

Going from NCI-H1563 to NCI-H2009, the relative viability rises from 0.87 to 1.17.

Going from SK-MES-1 to SW 1573, the relative viability falls from 0.93 to 0.762.

same assay, conditions: first compound 0.8 µM

Compared with PC-14, NCI-H1666 is lower in relative viability: 0.979 for the first, 0.962 for the second.

First: EKVX
Second: NCI-H1755
The relative viability of the first is lower: 0.716 for the first, 0.848 for the second.

Compared with NCI-H2023, HCC-78 is lower in relative viability: 0.642 for the first, 0.224 for the second.

Going from SK-LU-1 to PC-3 [JPC-3], the relative viability falls from 1.15 to 1.02.

Going from LOU-NH91 to NCI-H647, the relative viability rises from 0.681 to 1.27.

First: NCI-H23
Second: EPLC-272H
The relative viability of the first is lower: 0.676 for the first, 0.933 for the second.

First: NCI-H2126
Second: HCC-44
The relative viability of the first is lower: 0.757 for the first, 0.797 for the second.

Going from NCI-H1734 to NCI-H650, the relative viability rises from 0.731 to 0.915.

Compared with NCI-H2228, NCI-H1944 is higher in relative viability: 0.679 for the first, 0.991 for the second.

Compared with HARA, Calu-6 is higher in relative viability: 0.883 for the first, 1.04 for the second.

First: COR-L23
Second: EBC-1
The relative viability of the first is higher: 0.766 for the first, 0.731 for the second.

Compared with A549, NCI-H1299 is higher in relative viability: 0.718 for the first, 1.02 for the second.

Compared with NCI-H520, NCI-H1792 is lower in relative viability: 0.791 for the first, 0.762 for the second.

Compared with IA-LM, NCI-H661 is lower in relative viability: 0.864 for the first, 0.565 for the second.

Going from COR-L 105 to NCI-H1703, the relative viability falls from 0.86 to 0.326.

Going from NCI-H1563 to NCI-H2009, the relative viability rises from 1 to 1.19.

Compared with SK-MES-1, SW 1573 is lower in relative viability: 0.866 for the first, 0.762 for the second.

same assay, conditions: first compound 2.53 µM

Compared with PC-14, NCI-H1666 is lower in relative viability: 1.07 for the first, 0.956 for the second.

Compared with EKVX, NCI-H1755 is lower in relative viability: 0.981 for the first, 0.953 for the second.

First: NCI-H2023
Second: HCC-78
The relative viability of the first is higher: 0.608 for the first, 0.367 for the second.

Compared with SK-LU-1, PC-3 [JPC-3] is lower in relative viability: 1.23 for the first, 1.08 for the second.

First: LOU-NH91
Second: NCI-H647
The relative viability of the first is lower: 0.711 for the first, 1.28 for the second.

Going from NCI-H23 to EPLC-272H, the relative viability rises from 0.744 to 0.973.

First: NCI-H2126
Second: HCC-44
The relative viability of the first is lower: 0.724 for the first, 0.807 for the second.

First: NCI-H1734
Second: NCI-H650
The relative viability of the first is lower: 0.649 for the first, 1.14 for the second.

First: LK-2
Second: NCI-H2228
The relative viability of the first is higher: 1.16 for the first, 0.705 for the second.

First: NCI-H1944
Second: HARA
The relative viability of the first is lower: 0.825 for the first, 0.909 for the second.

Going from Calu-6 to COR-L23, the relative viability falls from 1.03 to 0.824.

Going from EBC-1 to A549, the relative viability falls from 0.882 to 0.732.

First: NCI-H1299
Second: NCI-H520
The relative viability of the first is higher: 1.07 for the first, 0.834 for the second.

Going from NCI-H1792 to IA-LM, the relative viability rises from 0.667 to 0.714.

Compared with NCI-H661, COR-L 105 is higher in relative viability: 0.689 for the first, 1.1 for the second.

First: NCI-H1703
Second: NCI-H1563
The relative viability of the first is lower: 0.437 for the first, 0.927 for the second.

First: NCI-H2009
Second: SK-MES-1
The relative viability of the first is higher: 1.24 for the first, 0.836 for the second.

In the case of SW 1573, the relative viability is reported as 0.894.

same assay, conditions: first compound 8 µM

First: PC-14
Second: NCI-H1666
The relative viability of the first is higher: 0.916 for the first, 0.841 for the second.

First: EKVX
Second: NCI-H1755
The relative viability of the first is higher: 1 for the first, 0.917 for the second.

Compared with NCI-H2023, HCC-78 is lower in relative viability: 0.463 for the first, 0.321 for the second.

Going from SK-LU-1 to PC-3 [JPC-3], the relative viability rises from 0.571 to 1.07.

Going from LOU-NH91 to NCI-H647, the relative viability falls from 0.672 to 0.534.

Compared with NCI-H23, EPLC-272H is higher in relative viability: 0.738 for the first, 0.964 for the second.

Compared with NCI-H2126, HCC-44 is higher in relative viability: 0.731 for the first, 0.859 for the second.

First: NCI-H1734
Second: NCI-H650
The relative viability of the first is lower: 0.696 for the first, 1.25 for the second.

First: LK-2
Second: NCI-H2228
The relative viability of the first is higher: 1.66 for the first, 0.603 for the second.

First: NCI-H1944
Second: HARA
The relative viability of the first is higher: 0.861 for the first, 0.725 for the second.

First: Calu-6
Second: COR-L23
The relative viability of the first is higher: 0.787 for the first, 0.639 for the second.

First: EBC-1
Second: A549
The relative viability of the first is higher: 0.711 for the first, 0.308 for the second.

First: NCI-H1299
Second: NCI-H520
The relative viability of the first is higher: 1.08 for the first, 1.04 for the second.

Compared with NCI-H1792, IA-LM is higher in relative viability: 0.718 for the first, 0.763 for the second.

Going from NCI-H661 to COR-L 105, the relative viability falls from 1.03 to 0.665.

Compared with NCI-H1703, NCI-H1563 is higher in relative viability: 0.29 for the first, 0.882 for the second.

First: NCI-H2009
Second: SK-MES-1
The relative viability of the first is higher: 1.05 for the first, 0.932 for the second.

Work on SW 1573 yielded a relative viability of 0.757.
